Test [1] deals with T1, Aspartate aminotransferase, cytoplasmic (Homo sapiens, UniProt P17174). The test can be described thus: Inhibition of GOT1 (unknown origin) using aspartic acid and alpha-ketoglutaric acid as substrates assessed as reduction in absorbance of NADH incubated for 20 mins in presence of MDH1 and NADH by HTS assay.
Test [2] addresses T1, Aspartate aminotransferase, cytoplasmic. As to the kind of experiment: Inhibition of GOT1 (unknown origin).
Test [3] has the same target. As to the kind of experiment: Noncompetitive inhibition of GOT1 (unknown origin) using aspartic acid as substrate assessed as inhibition constant by Michaelis-Menten equation based kinetic analysis.
The target is the same in test [4]. The test can be described thus: Noncompetitive inhibition of GOT1 (unknown origin) using alpha-Ketoglutaric acid as substrate assessed as inhibition constant by Michaelis-Menten equation based kinetic analysis.
Test [5] shares this target. The test can be described thus: Binding affinity to GOT1 (unknown origin) assessed as dissociation constant by microscale thermophoresis assay.
The target is the same in test [6]. As to the kind of experiment: Inhibition of human recombinant GOT1 using aspartic acid and alpha-ketoglutaric acid as substrates incubated in presence of MDH1 and NADH.
Test [7] shares this target. The test can be described thus: Inhibition of C-terminal His6-tagged human recombinant GOT1 expressed in Escherichia coli BL21 (DE3) cells using aspartic acid and alpha-ketoglutaric acid as substrates incubated in presence of MDH1 and NADH.

Each structure is given as a SMILES string. Structures can show the parent of a compound that is named as a salt.

T1 sequence (P17174 whole entry): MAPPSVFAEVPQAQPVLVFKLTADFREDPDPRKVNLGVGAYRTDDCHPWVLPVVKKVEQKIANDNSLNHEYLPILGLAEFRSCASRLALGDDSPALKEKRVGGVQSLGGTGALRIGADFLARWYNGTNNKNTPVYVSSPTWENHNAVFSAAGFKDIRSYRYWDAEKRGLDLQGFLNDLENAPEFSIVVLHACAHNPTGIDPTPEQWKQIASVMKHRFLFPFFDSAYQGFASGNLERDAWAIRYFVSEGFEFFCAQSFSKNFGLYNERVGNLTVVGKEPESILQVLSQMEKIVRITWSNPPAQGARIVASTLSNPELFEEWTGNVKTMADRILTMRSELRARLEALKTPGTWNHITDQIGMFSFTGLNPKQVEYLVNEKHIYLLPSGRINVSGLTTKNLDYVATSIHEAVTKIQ

In general, IC50 refers to the concentration that inhibits the measured activity by half. For the compound `NNc1nnc(Cl)c2ccccc12`, in test [1], the IC50 stood at 65.4 µM.

As for `NNc1cccnn1`, the IC50 in test [1] was 29.4 µM. In the case of `Nc1cccnn1`, the IC50 in test [1] is above 100 µM. By Ki is commonly meant the equilibrium dissociation constant of an inhibitor or competing ligand from its target. As a reminder, the Kd is the equilibrium constant for the complex coming apart. With `NNc1nncc2ccccc12` [HYDRALAZINE HYDROCHLORIDE], in test [2], the midpoint of inhibition, the IC50, lay at 26.6 µM. For the same compound, the values for the Ki in test [3] and in test [4] were 14.7 µM and 20.2 µM, respectively. Besides, the Kd in test [5] turned out to be 16.5 µM. Take `CC(C)=CCc1cc(/C=C2\OC(=O)C(c3cc(CC=C(C)C)c(O)cc3O)=C2O)ccc1O`: in test [6], the IC50 turned out to be 2.92 µM.

`COc1ccc(-c2ccc3cc(C(=O)O)ccc3c2)cc1C12CC3CC(CC(C3)C1)C2` [ADAPALENE]: the IC50 in test [7] amounted to 21.8 µM.

Regarding `NNc1nnc(NN)c2ccccc12` [DIHYDRALAZINE], the IC50 in test [1] is above 100 µM.

On to `NNc1nncc2ccccc12` [HYDRALAZINE], for which the 50% inhibitory concentration (IC50) in test [1] came to 26.6 µM. `NC1Cc2ccccc2N(O)C1=O` (centres undefined) came in with an IC50 in test [2] of 8 µM.

As to `Nc1cccc2cnncc12`, the IC50 in test [1] was above 100 µM.

Compound `O=C1Cc2cc(CCN3CCN(c4nsc5ccccc45)CC3)c(Cl)cc2N1` [ZIPRASIDONE] showed an IC50 in test [2] of 5.39 µM.

The values above are taken from ChEMBL document CHEMBL5104128, “The discovery of a non-competitive GOT1 inhibitor, hydralazine hydrochloride, via a coupling reaction-based high-throughput screening assay” (Bioorg Med Chem Lett, 2022).
